Laboratory results taken from patent US9216977B2 (The University of North Carolina at Chapel Hill, priority 2009, dated 2015).
Read-outs that look alike come from different tables or passages of the source.

How the values were obtained:
A549 = experiment: in vitro screen against human tumor cell line A549 (lung), GI50; type: cell-based
DU145 = experiment: in vitro screen against human tumor cell line DU-145 (prostate), GI50; type: cell-based
HCT-8 = experiment: in vitro screen against human tumor cell line HCT-8 (colon), GI50; type: cell-based
KB = experiment: in vitro screen against human tumor cell line KB (nasopharyngeal), GI50; type: cell-based; details: for GI50: read-out: GI50 KB
[1] = tested on: panel of cancer cell lines including A549 (lung), DU-145 (prostate), KB (nasopharyngeal), and HCT-8 (colon); experiment: cells; details: Homo sapiens
KBvin = experiment: in vitro screen against KBvin cell line, GI50; type: cell-based; details: Homo sapiens, KBVIN; Example 3, Table 1
SKBR = experiment: in vitro screen against cancer cell line SKBR (breast), GI50; type: cell-based; details: Example 3, Table 1
[2] = tested on: panel of cancer cell lines including A549 (lung), DU-145 (prostate), KB (nasopharyngeal), and HCT-8 (colon)
rats = details: rat, in vivo; cited from earlier work
[3] = Homo sapiens, A549, Example 3, Table 1, read-out: GI50 A549
[4] = Homo sapiens, DU-145, Example 3, Table 1, read-out: GI50 DU145
[5] = Homo sapiens, KB, Example 3, Table 1

**Q.** Which GI50 (A549; Homo sapiens, A549, Example 2, Table 5, read-out: GI50 A549) does the source give for `COc1ccc2c3c(c4cc(OC)c(OC)cc4c2c1)C[C@H]1CCOCN1C3` [Compound 13, (S)-12-oxa-cryptopleurine] here?
**A.** 1790 nM

**Q.** What about the GI50 (DU145; Homo sapiens, DU-145, Example 2, Table 5, read-out: GI50 DU145) of the same compound?
**A.** 1820 nM

**Q.** What about the GI50 (HCT-8; Homo sapiens, HCT-8, Example 2, Table 5, read-out: GI50 HCT-8) of the same compound?
**A.** 1450 nM

**Q.** And the GI50 (KB; Homo sapiens, KB, Example 2, Table 5)?
**A.** 1660 nM

**Q.** What about the GI50 ([1]; read-out: average GI50) of the same compound?
**A.** 1000 to 2000 nM

**Q.** Which GI50 (KBvin) does the source give for `COc1ccc2c3c(c4cc(OC)c(OC)cc4c2c1)C[C@H]1C[C@@H](O)CCN1C3` [Compound 13a, (13S,14aS)-13-hydroxyl-eryptopleurine] here?
**A.** 78 nM

**Q.** What about the GI50 (SKBR) of the same compound?
**A.** 295 nM

**Q.** And the GI50 (A549; [3])?
**A.** 72 nM

**Q.** What about the GI50 (DU145; [4]) of the same compound?
**A.** 59 nM

**Q.** And the GI50 (KB; [5])?
**A.** 43 nM

**Q.** What about the “range of cytotoxicity / anticancer activity in words” value [2] of the same compound?
**A.** low nM range

**Q.** For `COc1cc2c3c(c4cc(OC)c(OC)cc4c2cc1OC)CN1CCC[C@@H]1C3` [tylophorine], which generally non-toxic dose (rats) is on record?
**A.** up to 500 mg/kg

**Q.** With `COc1ccc2c3c(c4cc(OC)c(OC)cc4c2c1)C[C@H]1CC[C@@H](O)CN1C3` [Compound 19a, (12R,14aR)-12-hydroxyl-cryptopleurine] as the compound, how does the GI50 (KBvin) read?
**A.** 45 nM

**Q.** What about the GI50 (SKBR) of the same compound?
**A.** 348 nM

**Q.** And the GI50 (A549; [3])?
**A.** 82 nM

**Q.** What about the GI50 (DU145; [4]) of the same compound?
**A.** 66 nM

**Q.** What about the GI50 (KB; [5]) of the same compound?
**A.** 33 nM

**Q.** What about the “range of cytotoxicity / anticancer activity in words” value [2] of the same compound?
**A.** lower nM range

**Q.** Which GI50 (KBvin) does the source give for `COc1ccc2c3c(c4cc(OC)c(OC)cc4c2c1)C[C@H]1CC[C@H](O)CN1C3` [Compound 19b, (12S,14aR)-12-hydroxyl-cryptopleurine] here?
**A.** 3070 nM

**Q.** And the GI50 (SKBR)?
**A.** 6440 nM

**Q.** And the GI50 (A549; [3])?
**A.** 2510 nM

**Q.** And the GI50 (DU145; [4])?
**A.** 2250 nM

**Q.** What about the GI50 (KB; [5]) of the same compound?
**A.** 2250 nM

**Q.** What about the “range of cytotoxicity / anticancer activity in words” value [2] of the same compound?
**A.** low μM range

**Q.** Which GI50 (A549; Example 2, Table 2, 12-aza-antofines, read-out: GI50 A549) does the source give for `COc1ccc2c3c(c4cc(OC)c(OC)cc4c2c1)C[C@H]1CN(C)CN1C3` [Compound 3h, (S)-12-aza-12N-methyl-antofine] here?
**A.** 660 nM

**Q.** And the GI50 (DU145; Example 2, Table 2, 12-aza-antofines, read-out: GI50 DU145)?
**A.** 2030 nM

**Q.** What about the GI50 (HCT-8; Example 2, Table 2, 12-aza-antofines, read-out: GI50 HCT-8) of the same compound?
**A.** 1000 nM

**Q.** And the GI50 (KB; Example 2, Table 2, 12-aza-antofines)?
**A.** 1720 nM

**Q.** What about the GI50 ([1]; read-out: range of activities (GI50) over the cell line panel) of the same compound?
**A.** 660 to 2030 nM

**Q.** And the melting point?
**A.** 182 to 184 °C

**Q.** What does the source list for `COc1ccc2c3c(c4cc(OC)c(OC)cc4c2c1)C[C@H]1CCCCN1C3` [R-cryptopleurine, reference compound]?
**A.** GI50 (A549; read-out: A549 GI50): 1.38 nM; GI50 (A549; read-out: GI50 A549): 1.38 nM; GI50 (DU145; read-out: DU145 GI50): 1.59 nM; GI50 (DU145; read-out: GI50 DU145): 1.59 nM; GI50 (HCT-8; read-out: GI50 HCT-8): 1.09 nM; GI50 (HCT-8; read-out: HCT-8 GI50): 1.09 nM; KB GI50 (KB): 1.51 nM; GI50 (KB): 1.51 nM; toxicity in animal tests (rats): quite toxic
